Experimental data reported in patent US20240400591A1 (Jacobio Pharmaceuticals Co., Ltd., priority 2021, published 2024).
Read-outs that look alike come from different tables or passages of the source.

Experiments:
[1] = target: T1, His-p53 Y220C (94-294) protein (Homo sapiens, UniProt P04637, Y220C); experiment: In vitro DNA binding assay (HTRF); assay type: biochemical; conditions: % activation normalized to 2 μM Ref-1a high control
T1 construct: His-p53 Y220C (94-294) protein

[2] = test system: NUGC-3_P53_Luc single clonal cell line (p53 Y220C); experiment: Reporter gene assay (p53 RE luciferase); assay type: cell-based; conditions: luciferase reporter, 6 hours, normalized to Ref-1a (10 μM) high control, read-out: p53(Y220C)_NUGC-3 EC50
Description: NUGC-3_P53_Luc single clonal cell line was established using pGL4.38[luc2P/p53 RE/Hygro] Vector (E365A, promega). NUGC-3_P53-Luc single clonal cells were cultured in 37° C. cell incubator before use. NUGC-3-P53-Luc cells were collected and washed twice with PBS to remove phenol red and then resuspended in medium to a proper concentration. Tested compound dilutions were transferred into 384 well assay plates (PerkinElmer). A desired number of cells was seeded into the assay plate and cultured for 6 hours at 37° C. cell incubator. Britelite plus Luciferase Assay Reagent were added into each well and the luminescence value was recorded on Envision. The percent of activity value of compounds treated wells was normalized between high control and low control. Wells containing cells and Ref-1a (10 μM) sewved as high control, and wells containing cells and same percentage of DMSO sewved as low control. Activity value (%)=(Luminescence readoutCompound treated−Luminescence readoutLow control)/(Luminescence readoutHigh control−Luminescence readoutLow control)*100%. Then the data were analyzed either by fitting a 4-parameter logistic model or by Excel to calculate EC50 values and the EC50 was the concentration at 50% Activity on the curve.

[3] = test system: NUGC4 (P53 WT); experiment: Cell viability assay (CellTiter-Glo, 6 days), NUGC4; assay type: cell-based; conditions: cell viability, 6 days, CellTiter-Glo, read-out: NUGC4 (P53 WT) IC50
Description: (§1) Cells were collected and counted. A desired number of cells was seeded into 96-well microplate and cultured in 37° C. cell incubator overnight. Compounds dissolved in cell culture medium were added into cell plate and cultured for 6 days. After balancing CellTiter-Glo reagent and cells at room temperature for 30 min, equal volume of CellTiter-Glo reagents was added to assay plate and shaken for 2 min for cell lysis. The cells were balanced at room temperature for 10 minutes and Luminescence signal was read using Envision. The percent of cell viability for compounds treated wells were normalized between High control and low control. Wells containing cell culture medium and same percentage DMSO sewved as Low control. Wells containing cells and same percentage DMSO sewved as High control. Cell viability (%)=(Luminescence readoutCompound treated−Luminescence readoutLow control)/(Luminescence readoutHigh control−Luminescence readoutLow control)*100%. Then the data were analyzed either by fitting a 4-parameter logistic model or by Excel to calculate IC50 values. And the IC50 was the concentration at 50% Cell viability on the curve.

[4] = test system: NUGC3 (P53 Y220C); experiment: Cell viability assay (CellTiter-Glo, 6 days), NUGC3; assay type: cell-based; conditions: cell viability, 6 days, CellTiter-Glo, read-out: NUGC3 (P53 Y220C) IC50
Description: as §1

SMILES	EC50 [1]	EC50 ([2]; Homo sapiens, NUGC-3)	IC50 ([3]; Homo sapiens, NUGC-4, 144 h)	IC50 ([4]; Homo sapiens, NUGC-3, 144 h)	EC50 [2]	IC50 [3]	IC50 [4]	EC50 ([2]; Homo sapiens, NUGC-3, 6 h)
COc1cc(P(C)(C)=O)ccc1NCC#Cc1sc2c(NC3C4CCC3CN(C)C4)cccc2c1CC(F)(F)F (stereo not shown) [Example 124, (3-methoxy-4-((3-(7-((3-methyl-3-azabicyclo[3.2.1]octan-8-yl)amino)-3-(2,2,2-trifluoroethyl)benzo[b]thiophen-2-yl)prop-2-yn-1-yl)amino)phenyl)dimethylphosphine oxide]	143 nM	470 nM	7230 nM	2310 nM	–	–	–	–
COCC(O)CN1CC[C@@H](Nc2cccc3c(CC(F)(F)F)c(C#CCNc4ccc(S(C)(=O)=O)cc4OC)sc23)[C@@H](F)C1 (mixture of isomers) [Example 6, 1-((Z)-3-fluoro-4-((2-(3-((2-methoxy-4-(methylsulfonyl)phenyl)amino)prop-1-yn-1-yl)-3-(2,2,2-trifluoroethyl)benzo[b]thiophen-7-yl)amino)piperidin-1-yl)-3-methoxypropan-2-ol]	130 nM	360 nM	6830 nM	1190 nM	–	–	–	–
COc1cc(P(C)(C)=O)ccc1NCC#Cc1sc2c(N[C@@H]3CCN(C4CCCCOC4)C[C@@H]3F)cccc2c1CC(F)(F)F (stereo partly drawn) [Example 185, (4-((3-(7-(((3S,4R)-3-fluoro-1-(oxepan-3-yl)piperidin-4-yl)amino)-3-(2,2,2-trifluoroethyl)benzo[b]thiophen-2-yl)prop-2-yn-1-yl)amino)-3-methoxyphenyl)dimethylphosphine oxide]	54 nM	110 nM	2790 nM	880 nM	–	–	–	–
CN1CCC(Nc2cccc3c(CC(F)(F)F)c(C#CCNc4ccc(P(C)(C)=O)cc4OC(F)F)sc23)C(F)C1 (stereo not shown) [Example 64, (3-(difluoromethoxy)-4-((3-(7-(((Z)-3-fluoro-1-methylpiperidin-4-yl)amino)-3-(2,2,2-trifluoroethyl)benzo[b]thiophen-2-yl)prop-2-yn-1-yl)amino)phenyl)dimethylphosphine oxide]	44 nM	–	–	–	150 nM	13600 nM	980 nM	–
[2H]C([2H])([2H])Oc1cc(P(C)(C)=O)ccc1NCC#Cc1sc2c(N[C@@H]3CCN(C4CCOCC4)C[C@@H]3F)cccc2c1CC(F)(F)F [Example 184, (4-((3-(7-(((3S,4R)-3-fluoro-1-(tetrahydro-2H-pyran-4-yl)piperidin-4-yl)amino)-3-(2,2,2-trifluoroethyl)benzo[b]thiophen-2-yl)prop-2-yn-1-yl)amino)-3-(methoxy-d3)phenyl)dimethylphosphine oxide]	42 nM	100 nM	4460 nM	440 nM	–	–	–	–
[2H]C([2H])([2H])Oc1cc(P(C)(C)=O)ccc1NCC#Cc1sc2c(N[C@@H]3CCN(C)C[C@@H]3F)cccc2c1CC(F)(F)F [Example 174, (4-((3-(7-(((3S,4R)-3-fluoro-1-methylpiperidin-4-yl)amino)-3-(2,2,2-trifluoroethyl)benzo[b]thiophen-2-yl)prop-2-yn-1-yl)amino)-3-(methoxy-d3)phenyl)dimethylphosphine oxide]	15 nM	60 nM	5930 nM	350 nM	–	–	–	–
CN1CC[C@@H](Nc2cccc3c(CC(F)(F)F)c(C#CCNc4ccc(P(C)(C)=O)cc4OC(F)(F)F)sc23)[C@@H](F)C1 [Example 138, (4-((3-(7-(((3S,4R)-3-fluoro-1-methylpiperidin-4-yl)amino)-3-(2,2,2-trifluoroethyl)benzo[b]thiophen-2-yl)prop-2-yn-1-yl)amino)-3-(trifluoromethoxy)phenyl)dimethylphosphine oxide]	34 nM	–	11100 nM	880 nM	–	–	–	70 nM
COc1cc(P(C)(C)=O)ccc1NCC#Cc1sc2c(NC3CCN(C)CC3F)cccc2c1C(O)C(F)(F)F (racemic) [Example 188, (4-((3-(7-((3-fluoro-1-methylpiperidin-4-yl)amino)-3-(2,2,2-trifluoro-1-hydroxyethyl)benzo[b]thiophen-2-yl)prop-2-yn-1-yl)amino)-3-methoxyphenyl)dimethylphosphine oxide(racemic)]	18 nM	60 nM	40600 nM	1900 nM	–	–	–	–
COc1cc(S(C)(=O)=O)ccc1NCC#Cc1cc2c(N[C@@H]3CCN(C)C[C@@H]3F)cccc2n1CC(F)(F)F [Ref-1a, N-((3S,4R)-3-fluoro-1-methylpiperidin-4-yl)-2-(3-((2-methoxy-4-(methylsulfonyl)phenyl)amino)prop-1-yn-1-yl)-1-(2,2,2-trifluoroethyl)-1H-indol-4-amine, reference compound]	48 nM	50 nM	11000 nM	540 nM	–	–	–	–
COc1cc(P(C)(C)=O)ccc1NCC#Cc1sc2c(N[C@@H]3CCN(CC(C)C)C[C@@H]3F)cccc2c1CC(F)(F)F (racemic) [Example 101, (4-((3-(7-(((Z)-3-fluoro-1-isobutylpiperidin-4-yl)amino)-3-(2,2,2-trifluoroethyl)benzo[b]thiophen-2-yl)prop-2-yn-1-yl)amino)-3-methoxyphenyl)dimethylphosphine oxide]	105 nM	360 nM	2050 nM	2050 nM	–	–	–	–
CN1CC[C@@H](Nc2cccc3c(CC(F)(F)F)c(C#CCNc4ccc(P(C)(C)=O)cc4C(=O)NC4CC4)sc23)[C@@H](F)C1 [Example 215, N-cyclopropyl-5-(dimethylphosphoryl)-2-((3-(7-(((3S,4R)-3-fluoro-1-methylpiperidin-4-yl)amino)-3-(2,2,2-trifluoroethyl)benzo[b]thiophen-2-yl)prop-2-yn-1-yl)amino)benzamide]	42 nM	140 nM	37300 nM	370 nM	–	–	–	–
COc1cc(P(C)(C)=O)ccc1NCC#Cc1sc2c(NC3CC4CN(C)CC4C3)cccc2c1CC(F)(F)F (stereo not shown) [Example 182]	58 nM	480 nM	3740 nM	2030 nM	–	–	–	–
CN1CC[C@@H](Nc2cccc3c(CC(F)(F)F)c(C#CCNc4ccc(P(C)(C)=O)c5c4OCC5)sc23)[C@@H](F)C1 [Example 187, (7-((3-(7-(((3S,4R)-3-fluoro-1-methylpiperidin-4-yl)amino)-3-(2,2,2-trifluoroethyl)benzo[b]thiophen-2-yl)prop-2-yn-1-yl)amino)-2,3-dihydrobenzofuran-4-yl)dimethylphosphine oxide]	33 nM	50 nM	5320 nM	290 nM	–	–	–	–
CN1CC[C@H](Nc2cccc3c(CC(F)(F)F)c(C#CCNc4ccc(P(C)(C)=O)cc4C(F)F)sc23)[C@H](F)C1 [Example 225, (3-(difluoromethyl)-4-((3-(7-(((3R,4S)-3-fluoro-1-methylpiperidin-4-yl)amino)-3-(2,2,2-trifluoroethyl)benzol[b]thiophen-2-yl)prop-2-yn-1-yl)amino)phenyl)dimethylphosphine oxide]	36 nM	–	13600 nM	440 nM	–	–	–	170 nM
CN1CC[C@@H](Nc2cccc3c(CC(F)(F)F)c(C#CCNC(=O)c4cnn(C(C)(C)C)c4)sc23)[C@@H](F)C1 (racemic) [Example 129, 1-(tert-butyl)-N-(3-(7-(((Z)-3-fluoro-1-methylpiperidin-4-yl)amino)-3-(2,2,2-trifluoroethyl)benzo[b]thiophen-2-yl)prop-2-yn-1-yl)-1H-pyrazole-4-carboxamide]	69 nM	180 nM	8950 nM	1850 nM	–	–	–	–
CN1CC[C@@H](Nc2cccc3c(CC(F)(F)F)c(C#CCNC(=O)c4ccn(C(C)(C)C)c4)sc23)[C@@H](F)C1 (racemic) [Example 130, 1-tert-butyl-N-[3-[7-[((Z)-3-fluoro-1-methyl-4-piperidyl)amino]-3-(2,2,2-trifluoroethyl)benzothiophen-2-yl]prop-2-ynyl]pyrrole-3-carboxamide]	117 nM	360 nM	6850 nM	3550 nM	–	–	–	–
